Patent US10076519B2 (CYTOKINETICS, INC., priority 2010, dated 2018)

Each molecule was assayed on rabbit skeletal myofibrils (fast skeletal myofibrils) (assay: Activation of fast skeletal myofibrils (PUMA assay, PK/LDH-coupled ATPase at pCa25)). Settings: AC1.4 determined according to the procedure of Example 39; reported as class symbols.
Format: biochemical
Procedure, shortened: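 Detergent-washed rabbit psoas myofibrils (~90% fast fibres, calcium-regulated) assayed at calcium giving 25% of maximal ATPase rate (pCa25). ADP turnover coupled via pyruvate kinase/lactate dehydrogenase to NADH oxidation, read at 340 nm. Buffer 12 mM PIPES, 2 mM MgCl2, 1 mM DTT, pH 6.8; AC1.4 values derived.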

Row | Structure (SMILES) | Mean AC1.4
1 | COC(=O)N1CC(CNc2ccc(-c3ccc4[nH]ncc4c3)nn2)(c2ncccc2F)C1 [methyl 3-(3-fluoro(2-pyridyl))-3-{[(6-(1H-indazol-5-yl)pyridazin-3-yl)amino]methyl}azetidine-carboxylate] | D (D=>20 uM)
2 | COC(=O)N1CC(CNc2ccc(-c3cccc(C(N)=O)c3)nn2)(c2ncccc2F)C1 [methyl 3-({[6-(3-carbamoylphenyl)pyridazin-3-yl]amino}methyl)-3-(3-fluoro(2-pyridyl))azetidinecarboxylate] | D (D=>20 uM)
3 | COC(=O)c1cncc(-c2ccc(NCC(C)(C)c3ccc(F)cc3)nn2)c1 [methyl 5-(6-{[2-(4-fluorophenyl)-2-methylpropyl]amino}pyridazin-3-yl)pyridine-3-carboxylate] | B (B=1-10 uM)
4 | CC(C)(C)OC(=O)N1CCN(C(=O)c2ccc(NCC(C)(C)c3ccc(F)cc3)nn2)CC1 [tert-butyl 4-[(6-{[2-(4-fluorophenyl)-2-methylpropyl]amino}pyridazin-3-yl)carbonyl]piperazinecarboxylate] | D (D=>20 uM)
5 | CC(C)(C)OC(=O)N1CCN(C(=O)c2cccc(-c3ccc(NCC(C)(C)c4ccc(F)cc4)nn3)c2)CC1 [tert-butyl 4-{[3-(6-{[2-(4-fluorophenyl)-2-methylpropyl]amino}pyridazin-3-yl)phenyl]carbonyl}piperazine-carboxylate] | B (B=1-10 uM)

Same assay, conditions: median AC1.4 class, procedure of Example 39

Row | Structure (SMILES) | Mean AC1.4
6 | CCOC(=O)c1nc(-c2cc(Cl)c(NCC3(c4ncccc4F)CCC3)nn2)sc1Cl [ethyl 5-chloro-2-[5-chloro-6-({[(3-fluoro(2-pyridyl))cyclobutyl]methyl}ami-no)pyridazin-3-yl]-1,3-thiazole-4-carboxylate] | D (D=>20 uM)
7 | COC(=O)c1cn(C)c(-c2ccc(NCC3(c4ncccc4F)CCC3)nn2)n1 [methyl 2-[6-({[(3-fluoro(2-pyridyl))cyclobutyl]methyl}ami-no)pyridazin-3-yl]-1-methylimidazole-4-carboxylate] | D (D=>20 uM)
8 | COC(=O)c1cnc(-c2ccc(NCC3(c4ncccc4F)CCC3)nn2)o1 [methyl 2-[6-({[(3-fluoro-2-pyridyl)cyclobutyl]methyl}ami-no)pyridazin-3-yl]-1,3-oxazole-5-carboxylate] | D (D=>20 uM)
9 | COC(=O)c1csc(-c2ccc(NCC3(c4ncccc4F)CCC3)nn2)n1 [methyl 2-[6-({[(3-fluoro-2-pyridyl)cyclobutyl]methyl}ami-no)pyridazin-3-yl]-1,3-thiazole-4-carboxylate] | D (D=>20 uM)
10 | COC(=O)c1c[nH]c(-c2ccc(NCC3(c4ncccc4F)CCC3)nn2)n1 [methyl 2-[6-({[(3-fluoro-2-pyridyl)cyclobutyl]methyl}ami-no)pyridazin-3-yl]imidazole-4-carboxylate] | D (D=>20 uM)
11 | COC(=O)c1cccc(-c2ccc(NC[C@]3(c4ncccc4F)C[C@H](F)C3)nn2)c1 [methyl 3-[6-({[3-fluoro-1-(3-fluoro(2-pyridyl))cyclobutyl]methyl}ami-no)pyridazin-3-yl]benzoate] | B (B=1-10 uM)
12 | COC(=O)c1ccc(F)c(-c2ccc(NC[C@]3(c4ncccc4F)C[C@H](F)C3)nn2)c1 [methyl 4-fluoro-3-[6-({[3-fluoro-1-(3-fluoro(2-pyridyl))cyclobutyl]methyl}ami-no)pyridazin-3-yl]benzoate] | B (B=1-10 uM)
13 | CC(C)OC(=O)c1ccc(F)c(-c2ccc(NC[C@]3(c4ncccc4F)C[C@H](F)C3)nn2)c1 [methylethyl 4-fluoro-3-[6-({[3-fluoro-1-(3-fluoro(2-pyridyl))cyclobutyl]methyl}ami-no)pyridazin-3-yl]benzoate] | B (B=1-10 uM)
14 | O=C(CNC(=O)c1ccc(NCC2(c3ncccc3F)CCC2)nn1)OCc1ccccc1 [phenylmethyl 2-{[6-({[(3-fluoro-2-pyridyl)cyclobutyl]methyl}ami-no)pyridazin-3-yl]carbonylamino}acetate] | D (D=>20 uM)
15 | CC(C)(C)OC(=O)N1CC(F)(F)CC1C(=O)NCc1cnc(-c2ccc(NCC3(c4ncccc4F)CCC3)nn2)s1 [tert-butyl (2S)-4,4-difluoro-2-[N-({2-[6-({[(3-fluoro(2-pyridyl))cyclobutyl]methyl}ami-no)pyridazin-3-yl](1,3-thiazol-5-yl)}methyl)carbamoyl]pyrrolidine-carboxylate] | B (B=1-10 uM)
16 | O=C(NCCO)c1cnc(-c2ccc(NCC3(c4ncccc4F)CCC3)nn2)s1 [{2-[6-({[(3-fluoro(2-pyridyl))cyclobutyl]methyl}ami-no)pyridazin-3-yl](1,3-thiazol-5-yl)}-N-(2-hydroxyethyl)carboxamide] | A (A=<1 uM)
17 | O=C(NC1CCNC1=O)c1cnc(-c2ccc(NCC3(c4ncccc4F)CCC3)nn2)s1 (stereo not shown) [{2-[6-({[(3-fluoro(2-pyridyl))cyclobutyl]methyl}ami-no)pyridazin-3-yl](1,3-thiazol-5-yl)}-N-(2-oxopyrrolidin-3-yl)carboxamide] | B (B=1-10 uM)
18 | CC(C)NC(=O)c1cnc(-c2ccc(NCC3(c4ncccc4F)CCC3)nn2)s1 [{2-[6-({[(3-fluoro(2-pyridyl))cyclobutyl]methyl}ami-no)pyridazin-3-yl](1,3-thiazol-5-yl)}-N-(methylethyl)carboxamide] | B (B=1-10 uM)
19 | O=C(NCC1CCCO1)c1cnc(-c2ccc(NCC3(c4ncccc4F)CCC3)nn2)s1 (stereo not shown) [{2-[6-({[(3-fluoro(2-pyridyl))cyclobutyl]methyl}ami-no)pyridazin-3-yl](1,3-thiazol-5-yl)}-N-(oxolan-2-ylmethyl)carboxamide] | B (B=1-10 uM)
20 | CS(=O)(=O)CCNC(=O)c1cnc(-c2ccc(NCC3(c4ncccc4F)CCC3)nn2)s1 [{2-[6-({[(3-fluoro(2-pyridyl))cyclobutyl]methyl}ami-no)pyridazin-3-yl](1,3-thiazol-5-yl)}-N-[2-(methylsulfonyl)ethyl]carboxamide] | A (A=<1 uM)
21 | CNC(=O)c1cnc(-c2ccc(NCC3(c4ncccc4F)CCC3)nn2)s1 [{2-[6-({[(3-fluoro(2-pyridyl))cyclobutyl]methyl}ami-no)pyridazin-3-yl](1,3-thiazol-5-yl)}-N-methylcarboxamide] | A (A=<1 uM)
22 | O=C(NC1CCNC1)c1cnc(-c2ccc(NCC3(c4ncccc4F)CCC3)nn2)s1 (stereo not shown) [{2-[6-({[(3-fluoro(2-pyridyl))cyclobutyl]methyl}ami-no)pyridazin-3-yl](1,3-thiazol-5-yl)}-N-pyrrolidin-3-ylcarboxamide] | A (A=<1 uM)
23 | OCc1cnc(-c2ccc(NCC3(c4ncccc4F)CCC3)nn2)s1 [{2-[6-({[(3-fluoro-2-pyridyl)cyclobutyl]methyl}ami-no)pyridazin-3-yl]-1,3-thiazol-5-yl}methan-1-ol] | B (B=1-10 uM)
24 | CC(C)(Nc1ccc(-c2cccc(NS(C)(=O)=O)c2)nn1)c1cccc(OC(F)F)n1 [{3-[6-({1-[6-(difluoromethoxy)(2-pyridyl)]-isopropyl}amino)pyridazin-3-yl]phenyl}(methylsulfonyl)amine] | A (A=<1 uM)

Same assay, conditions: median AC1.4 reported as class; procedure of Example 39

Row | Structure (SMILES) | Mean AC1.4
25 | CCOC(=O)c1cc(-c2ccc(NC[C@]3(c4ncccc4F)C[C@H](F)C3)nn2)ccc1NC [ethyl 5-[6-({[3-fluoro-1-(3-fluoro(2-pyridyl))cyclobutyl]methyl}ami-no)pyridazin-3-yl]-2-(methylamino)benzoate] | A (A=<1 uM)
26 | COC(=O)Cc1ccc(F)c(-c2ccc(NCC3(c4ncccc4F)CCC3)nn2)c1 [methyl 2-{4-fluoro-3-[6-({[(3-fluoro(2-pyridyl))cyclobutyl]methyl}ami-no)pyridazin-3-yl]phenyl}acetate] | B (B=1-10 uM)
27 | COC(=O)c1csc(NC(=O)c2ccc(NCC3(c4ncccc4F)CCC3)nn2)n1 [methyl 2-{[6-({[(3-fluoro-2-pyridyl)cyclobutyl]methyl}ami-no)pyridazin-3-yl]carbonylamino}-1,3-thiazole-4-carboxylate] | B (B=1-10 uM)
28 | COC(=O)CCc1cnc(-c2ccc(NCC3(c4ncccc4F)CCC3)nn2)s1 [methyl 3-{2-[6-({[(3-fluoro-2-pyridyl)cyclobutyl]methyl}ami-no)pyridazin-3-yl]-1,3-thiazol-5-yl}propanoate] | B (B=1-10 uM)
29 | CNc1ccc(-c2ccc(NC[C@]3(c4ncccc4F)C[C@H](F)C3)nn2)cc1C(=O)OC [methyl 5-[6-({[3-fluoro-1-(3-fluoro(2-pyridyl))cyclobutyl]methyl}ami-no)pyridazin-3-yl]-2-(methylamino)benzoate] | B (B=1-10 uM)
30 | COC(=O)c1cc2cc(-c3ccc(NC[C@]4(c5ncccc5F)C[C@H](F)C4)nn3)ccc2[nH]1 [methyl 5-[6-({[3-fluoro-1-(3-fluoro(2-pyridyl))cyclobutyl]methyl}ami-no)pyridazin-3-yl]indole-2-carboxylate] | A (A=<1 uM)
31 | Cc1cc(NCC2(c3ncccc3F)CCC2)nnc1-c1ncc(CO)s1 [{2-[6-({[(3-fluoro(2-pyridyl))cyclobutyl]methyl}amino)-4-methylpyridazin-3-yl]-1,3-thiazol-5-yl}methan-1-ol] | B (B=1-10 uM)
32 | CNC(=O)c1cc(-c2ccc(NC[C@]3(c4ncccc4F)C[C@H](F)C3)nn2)ccc1F [{2-fluoro-5-[6-({[3-fluoro-1-(3-fluoro(2-pyridyl))cyclobutyl]methyl}ami-no)pyridazin-3-yl]phenyl}-N-methylcarboxamide] | C (C=10-20 uM)
33 | CNC(=O)c1cc(C)cc(-c2ccc(NC[C@]3(c4ncccc4F)C[C@H](F)C3)nn2)c1O [{3-[6-({[3-fluoro-1-(3-fluoro(2-pyridyl))cyclobutyl]methyl}ami-no)pyridazin-3-yl]-2-hydroxy-5-methylphenyl}-N-methylcarboxamide] | B (B=1-10 uM)
34 | CNC(=O)c1cccc(-c2ccc(NC[C@]3(c4ncccc4F)C[C@H](F)C3)nn2)c1O [{3-[6-({[3-fluoro-1-(3-fluoro(2-pyridyl))cyclobutyl]methyl}ami-no)pyridazin-3-yl]-2-hydroxyphenyl}-N-methylcarboxamide] | A (A=<1 uM)
